In US20240352055A1, “PROCESS FOR THE MANUFACTURE OF (2S,3S,4S,5R,6S)-3,4,5-TRIHYDROXY-6-(((4AR,10AR)-7-HYDROXY-1-PROPYL-1,2,3,4,4A,5,10,10A-OCTAHYDROBENZO[G]QUINOLIN-6-YL)OXY)TETRAHYDRO-2H-PYRAN-2-CARBOXYLIC ACID” (H. LUNDBECK A/S, priority 2019, published 2024):
pEC50: −log10 of the molar value. Like-named read-outs stand apart in the source and are kept apart here.

How the values were obtained:
[1] = in man after oral dosing; cited from earlier work
human D1 receptor = human D1 receptor (Homo sapiens (Human), UniProt P21728); assay: Dopamine D1 receptor agonism, HTRF cAMP assay; assay type: cell-based
human D1 receptor, sequence (P21728 whole entry): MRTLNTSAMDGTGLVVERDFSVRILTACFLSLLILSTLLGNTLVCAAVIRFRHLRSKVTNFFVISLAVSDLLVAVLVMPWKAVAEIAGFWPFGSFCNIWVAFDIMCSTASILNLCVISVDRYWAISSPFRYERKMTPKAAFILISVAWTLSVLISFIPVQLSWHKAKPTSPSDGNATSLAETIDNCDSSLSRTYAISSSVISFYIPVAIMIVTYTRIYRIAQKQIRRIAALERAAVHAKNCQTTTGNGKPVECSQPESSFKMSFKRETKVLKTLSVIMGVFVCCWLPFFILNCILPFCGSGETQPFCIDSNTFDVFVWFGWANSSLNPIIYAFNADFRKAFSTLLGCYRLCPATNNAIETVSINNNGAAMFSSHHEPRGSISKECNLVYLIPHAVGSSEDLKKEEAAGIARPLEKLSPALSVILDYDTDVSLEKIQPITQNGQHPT
Method: Dopamine D1 receptor agonism was measured using a HTRF cAMP from CisBio using the protocol developed by HD Biosciences (China). Briefly, the assay is a homogeneous time resolved-fluorescence resonance energy transfer (HTRF) assay that measures production of cAMP by cells in a competitive immunoassay between native cAMP produced by cells and cAMP-labeled with XL-665. A cryptate-labeled anti-cAMP antibody visualizes the tracer. The assay was performed in accordance with instructions from manufacturer.
Test compounds were added to wells of microplates (384 format). HEK-293 cells expressing the human D1 receptor were plated at 1000 cells/well and incubated 30 minutes at room temperature. cAMP-d2 tracer was added to wells and followed by addition of Anti-cAMP antibody-cryptate preparation and incubated for 1 hour at room temperature in dark. HTRF cAMP was measured by excitation of the donor with 337 nm laser (the “TRF light unit”) and subsequent (delay time 100 microseconds) measurement of cryptate and d2 emission at 615 nm and 665 nm over a time window of 200 microseconds with a 2000 microseconds time window between repeats/100 flashes). HTRF measurements were performed on an Envision microplate reader (PerkinElmer). The HTRF signal was calculated as the emission-ratio at 665 nm over 615 nm. The HTRF ratio readout for test compounds was normalized to […] and 100% stimulation using control wells with DMSO-solvent or 30 μM dopamine. Test compound potency (EC50) was estimated by nonlinear regression using the sigmoidal dose-response (variable slope) using Xlfit 4 (IDBS, Guildford, Surrey, UK, model 205).
y=(A+((B−A)/(1+((C/x)^D))))
(§1) where y is the normalized HTRF ratio measurement for a given concentration of test compound, x is the concentration of test compound, A is the estimated efficacy at infinite compound dilution, and B is the maximal efficacy. C is the EC50 value and D is the Hill slope coefficient. EC50 estimates were obtained from an independent experiment and the logarithmic average was calculated.

human D2 receptor = human D2 receptor (Homo sapiens (Human), UniProt P14416); assay: Dopamine D2 receptor agonism, calcium mobilization assay; assay type: cell-based; details: HEK293/G15 cells expressing human D2 receptor; calcium flux
human D2 receptor, sequence (P14416 whole entry): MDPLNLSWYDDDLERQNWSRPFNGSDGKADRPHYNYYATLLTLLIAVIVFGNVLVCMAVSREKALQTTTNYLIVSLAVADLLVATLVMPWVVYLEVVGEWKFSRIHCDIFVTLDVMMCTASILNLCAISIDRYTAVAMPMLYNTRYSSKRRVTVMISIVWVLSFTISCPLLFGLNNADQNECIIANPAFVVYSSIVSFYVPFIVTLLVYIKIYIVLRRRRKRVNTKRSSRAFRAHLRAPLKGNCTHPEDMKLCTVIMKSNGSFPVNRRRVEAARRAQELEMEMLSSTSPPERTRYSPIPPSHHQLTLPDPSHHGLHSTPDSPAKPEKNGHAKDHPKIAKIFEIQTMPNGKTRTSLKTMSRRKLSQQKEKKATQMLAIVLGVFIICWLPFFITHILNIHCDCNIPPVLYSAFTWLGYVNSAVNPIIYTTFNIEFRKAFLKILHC
Method: Dopamine D2 receptor agonism was measured using a calcium mobilization assay protocol developed by HD Biosciences (China). Briefly, HEK293/G15 cells expressing human D2 receptor were plated at a density of 15000 cells/well in clear-bottomed, Matrigel-coated 384-well plates and grown for 24 hours at 37° C. in the presence of 5% CO2. The cells were incubated with calcium-sensitive fluorescent dye, Fluo8, for 60-90 minutes at 37° C. in the dark. Test compounds were prepared at 3-fold concentrated solution in 1×HBSS buffer with Ca^2. and Mg^2+. Calcium Flux signal was immediately recorded after compounds were added from compound plate to cell plate at FLIPR (Molecular Devices). The fluorescence data were normalized to yield responses for no stimulation (buffer) and full stimulation (1 μM of dopamine) of 0% and 100%. stimulation, respectively. Test compound potency (EC50) was estimated by nonlinear regression using the sigmoidal dose-response (variable slope) using Xlfit 4 (IDBS, Guildford, Surrey, UK, model 205).
as §1, with “normalized” for “normalized HTRF”, “from” for “from an”

human 5-HT2B receptor = human 5-HT2B receptor (Homo sapiens (Human), UniProt P41595); assay: 5-HT2B agonist activity assay (IP1 production, HTRF); assay type: cell-based; details: for 5-HT2B agonist effect at single concentration: percent of control response to 1 μM 5-HT; for pEC50: CHO cells expressing human 5-HT2B, IP1 production
human 5-HT2B receptor, sequence (P41595 whole entry): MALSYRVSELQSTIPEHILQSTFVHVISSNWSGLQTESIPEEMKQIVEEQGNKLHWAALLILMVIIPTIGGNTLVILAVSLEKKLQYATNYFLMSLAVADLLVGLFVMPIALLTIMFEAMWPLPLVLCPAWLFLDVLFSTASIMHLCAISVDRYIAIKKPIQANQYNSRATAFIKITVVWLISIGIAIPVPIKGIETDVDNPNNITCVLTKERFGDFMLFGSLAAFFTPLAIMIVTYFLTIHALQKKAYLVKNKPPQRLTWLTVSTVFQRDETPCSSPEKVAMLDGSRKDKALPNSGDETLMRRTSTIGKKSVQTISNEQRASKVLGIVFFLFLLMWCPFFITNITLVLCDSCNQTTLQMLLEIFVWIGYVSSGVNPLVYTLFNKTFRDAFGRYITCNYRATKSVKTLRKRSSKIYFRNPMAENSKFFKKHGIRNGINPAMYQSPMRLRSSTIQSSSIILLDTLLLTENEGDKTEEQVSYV
Method: Evaluation of the agonist activity of compounds (I), (Ia)(Ib), (Ic), and (Id) at the human 5-HT2B receptor was performed by Eurofins/Cerep (France) measuring the compound effects on inositol monophosphate (IP1) production using the HTRF detection method. Briefly, the human 5-HT2B receptor was expressed in transfected CHO cells. The cells were suspended in a buffer containing 10 mM Hepes/NaOH (pH 7.4), 4.2 mM KCl, 146 mM NaCl, 1 mM CaCl2, 0.5 mM MgCl2, 5.5 mM glucose and 50 mM LiCl, then distributed in microplates at a density of 4100 cells/well and incubated for 30 minutes at 37° C. in the presence of buffer (basal control), test compound or reference agonist. For stimulated control measurement, separate assay wells contained 1 μM 5-HT. Following incubation, the cells were lysed and the fluorescence acceptor (fluorophen D2-labeled IP1) and fluorescence donor (anti-IP1 antibody labeled with europium cryptate) were added. After 60 minutes at room temperature, the fluorescence transfer was measured at lambda (Ex) 337 nm and lambda(Em) 620 and 665 nm using a microplate reader (Rubystar, BMG). The IP1 concentration was determined by dividing the signal measured at 665 nm by that measured at 620 nm (ratio). The results were expressed as a percent of the control response to 1 μM 5-HT. The standard reference agonist was 5-HT, which was tested in each experiment at several concentrations to generate a concentration-response curve from which its EC50 value is calculated as described above for dopamine functional assays.

[2] = PK experiments in rats: plasma compound (I) after oral dosing of prodrugs; assay type: in vivo, Han Wistar rats; details: Wistar rats, oral dosing of the prodrug
Method: Plasma was placed on water-ice following collection. Final storage at approximately −70° C.
Instrumentation Used for Analysis of Compound (I) from Dosing Compound (Ia):
Mobile phase B: Acetonitrile. […] Flow rate 0.5 mL/min.
The rats had unrestricted access to the diet.
Instrumentation Used for Analysis of Compound (I) from Dosing of Compound (Ib):
Mobile phase B: Acetonitrile+0.2% formic acid. […] Flow rate 0.3 mL/min.
Dosing and blood sampling for compound (Ic): Han Wistar rats were supplied by Envigo, UK. […] The rats received a standard laboratory diet Teklad 2014C. The rats had unrestricted access to the diet. […] Rats were given 494 μg/kg (Ic).

locomotor activity = assay: Rat locomotor activity (hyperactivity) assay, open field; assay type: in vivo, male CD rats; details: for Onset of increased locomotor activity post-administration / End of locomotor effect, time post administration: (Id) 10 to 300 μg/kg p.o.; for End of locomotor effect, time post administration: recording to the 415-minute time point
Method: In total, 206 male CD rats (Charles River, Germany) weighing 200-250 grams (165-190 grams upon arrival) were used in the study. Animals were housed at a standard temperature (22±1° C.) and in a light-controlled environment (lights on from 7 am to […]) with ad libitum access to food and water. The experiment described below was performed in accordance with the standard operating procedures of Charles River Discovery Research Services Finland Ltd. and in accordance with the national Animal Experiment Board of Finland (Eläinkoelautakunta, ELLA) authority on animal testing.
The test device is a square Plexiglass-arena (measuring 40×40×40 cm), in which the movement paths of the rats are recorded by an activity monitor (Med. Associates Inc.). Before the test period is initiated, rats are habituated to their test cage for 60 minutes. Upon completion of habituation, animals were treated with either compound or vehicle and placed back into the open field apparatus. The main test parameter measured is ambulatory distance (recorded in 5 minute segments). Overall time of measurement after receiving initial treatment was 360 minutes. Total follow up period in the study was 420 minutes, including 60 minutes of habituation.
Apomorphine and pramipexole were also concomitantly tested in this assay as comparators (i.e. known standard-of-care (SoC) in the Parkinson's Disease field), and plasma concentration was analyzed for apomorphine.

[3] = Conversion of compound (Id) to compound (I) in rat hepatocytes; assay type: in vitro ADME; details: 1 μg/mL, 37° C., up to 60 minutes
Method: (§2) The cell concentration at incubation was 1×10^6 viable cells/mL. The incubations were performed in glass tubes at 37° C. with a total incubation volume of 3.5 mL and with duplicate incubations for each test item. The 3.5 mL of hepatocyte suspension was equilibrated for 10 minutes in a water bath set to 37° C. where after the incubations were initiated by adding 3.5 μL of a stock solution of the test item in DMSO (Dimethyl sulfoxide) and gently inverting the tubes. The final solvent concentration in the incubations was 0.1% DMSO. Samples of 600 μL were withdrawn from the incubations at the pre-determined time points of 0.25, 5, 15, 30 and 60 minutes after ensuring homogeneity of hepatocyte suspensions. The withdrawn volume was added to 1 mL Nunc cryotubes on wet ice containing 60 μL of ice-cold ascorbic acid (100 mg/mL) and 30 μL of ice cold 100 mM saccharic acid 1.4-lactone in 0.5 M citric acid. The tubes were mixed and 35 μL of a solution of ice cold 20% formic acid was added. The tubes were mixed thoroughly and stored at −80° C. awaiting analysis.

[4] = Conversion of compound (Id) to compound (I) in human hepatocytes; assay type: in vitro ADME; details: 1 μg/mL, 37° C., up to 60 minutes
Method: as §2

[5] = Conversion of compound (Id) to compound (I) in fresh rat blood; assay type: in vitro ADME; details: 1 μg/mL, 37° C., up to 60 minutes
Method: (§3) Conversion of (Id) in human blood (average of 3 donors) and rat blood (average of […]) to (1) was shown in fresh blood at 37° C. spiked with 1 μg/mL of (Id). (1) was measured at 0, 5, 15, 30 and 60 minutes in isolated plasma. Analysis method and Instrumentation as described in Examples 9 and 10 below in the section “Instrumentation used for analysis of compound (I) from dosing of compounds (Ic) and (d).”

[6] = Conversion of compound (Id) to compound (I) in fresh human blood; assay type: in vitro ADME; details: 1 μg/mL, 37° C., up to 60 minutes
Method: as §3

[7] = In vivo conversion of compound (Id) to compound (I) after oral dosing in minipigs
[8] = Liu et al., Bioorganic Med. Chem. (2008); cited from earlier work
[9] = HEK-293 cells expressing human D1 receptor, cAMP HTRF, read-out: D1 EC50
[10] = apomorphine 3 mg/kg s.c., pramipexole 0.3 mg/kg s.c.

SMILES	pEC50 (human D1 receptor; [9])	pEC50 (human D2 receptor)	pEC50 (human 5-HT2B receptor)	Plasma profile of compound (I) after oral dosing (in words) [2]	Onset of increased locomotor activity post-administration (locomotor activity; [10])	further results
CCCc1cc2c(s1)CN[C@@H]1CCc3cc(OC(C)=O)c(OC(C)=O)cc3[C@@H]21 [adrogolide]						Oral bioavailability [1]: ~4%
CCCN1CCC[C@@H]2CC3=C(CCCC3=O)C[C@H]21 [Compound (Ia)]	< 6.00	< 6.00	< 5.22	early and high peak concentrations of compound (I)		5-HT2B agonist effect at single concentration (human 5-HT2B receptor; @30 μM): 58%
CCCN1CCC[C@@H]2Cc3c(ccc(O)c3O[C@@H]3O[C@H](C(=O)O)[C@@H](O)[C@H](O)[C@H]3O)C[C@H]21 [Compound (Id), (2S,3S,4S,5R,6S)-3,4,5-trihydroxy-6-(((4aR,10aR)-7-hydroxy-1-propyl-1,2,3,4,4a,5,10,10a-octahydrobenzo[g]quinolin-6-yl)oxy)tetrahydro-2H-pyran-2-carboxylic acid]	5.57	5.96		slower absorption rate avoiding rapid peak concentrations accompanied by a sustained exposure of compound (I) in plasma	~2 h	End of locomotor effect, time post administration (locomotor activity; apomorphine 3 mg/kg s.c.): lasting until the end of recording; Total distance travelled (locomotor activity; versus vehicle, (Id) 10-300 μg/kg p.o., apomorphine 3 mg/kg s.c., pramipexole 0.3 mg/kg s.c.): significantly increased activity; Conversion to compound (I) [3]: time dependent conversion; Conversion to compound (I) [4]: time dependent conversion; Conversion to compound (I) [5]: time dependent conversion; Conversion to compound (I) [6]: time dependent conversion; In vivo conversion to compound (I) [7]: observed
CN1CCc2cccc3c2[C@H]1Cc1ccc(O)c(O)c1-3 [apomorphine]					immediate	End of locomotor effect, time post administration (locomotor activity; apomorphine 3 mg/kg s.c.): 1.5 h
CCCN1CCC[C@@H]2Cc3c(ccc(OC(=O)C(C)(C)C)c3OC(=O)C(C)(C)C)C[C@H]21 [(Ic)]				extremely low		5-HT2B agonist effect at single concentration (human 5-HT2B receptor; @10 μM): −5%@10 μM
CCCN1CCC[C@@H]2Cc3c(ccc(O)c3O)C[C@H]21 [Compound (I), (4aR,10aR)-1-Propyl-1,2,3,4,4a,5,10,10a-octahydro-benzo[g]quinoline-6,7-diol]	8.48	8.89	5.54			Oral bioavailability (in words) [8]: low oral bioavailability
CCCN1CCC[C@@H]2Cc3c(ccc4c3OCO4)C[C@H]21 [Compound (Ib)]		7.34	8.42	early and high peak concentrations of compound (I)		pEC50 (human D1 receptor): < 6.00; 5-HT2B receptor agonism (in words) (human 5-HT2B receptor): agonist of the 5-HT2B receptor
CCCN[C@H]1CCc2nc(N)sc2C1 [Pramipexole, pramipexole]					about 1 hours	Locomotor effect gone, time after its appearance (locomotor activity; pramipexole 0.3 mg/kg s.c., at the 270-minute time point): 2.5 h
